Measured values taken from US20140094482A1, “BENZAZOCINE-RING COMPOUND INHIBITION OF TAU HYPERPHOSPHORYLATION” (priority 2012, published 2014).
Where “and” joins values, the source holds several entries; their conditions need not be identical. Equal entries are not always repeated. Entries after “also recorded” stand apart in the source; their conditions may differ. Where two headings read alike, the source gives them in different places.

Columns and labels:
α7nAChR-FLNA complex = target: T1, α7nAChR-FLNA complex (Rattus norvegicus, UniProt A0A8I5ZV49); test: Aβ42-induced α7nAChR-FLNA association in frontal cortical synaptosomes (anti-FLNA immunoprecipitation, Western blot); assay type: biochemical; conditions: compound simultaneous with 100 nM Aβ42; vs Aβ42 alone
T1 construct: from tissue; host or cells: rat frontal cortex synaptosomes
Method: FIG. 2, in two panels as FIG. 2A and FIG. 2B, illustrates high-affinity FLNA-binding compounds reduce α7nAChR-FLNA association as shown by Western blots. Frontal cortical synaptosomes from 2-month-old rats (n=4) were treated with 0.1 or 1 nM concentrations of potential FLNA-binding compounds [A0040, A0068, B0055, C0137M, C0138M and (+)-naloxone (+NLX)] either simultaneously (Sim) with or 10 minutes prior (10′ pr) to Aβ42 and were analyzed for their α7nAChR-FLNA complex contents. The α7nAChR-FLNA complexes in the solubilized synaptosomes were immunoprecipitated with immobilized anti-FLNA and the α7nAChR and FLNA levels in the anti-FLNA immunoprecipitates determined by Western blotting FIG. 2A and quantified by densitometry (FIG. 2B). n=3. Data are means±SEM. […] vs. Aβ42 alone. Data for 0.1 nM simultaneous admixture are shown in diagonal hatching; data from 1 nM simultaneous admixture are shown in cross-hatching; data from 0.1 nM 10 minutes prior to Aβ42 are shown in horizontal hatching; and data from 1 nM admixture 10 minutes prior Aβ42 are shown with vertical hatching. The letter designation “M” that accompanies many of the “C-series” compounds is omitted from FIG. 2, the remaining figures and most discussions of the figures and compounds hereinafter for ease in expression. […]

ERK2 = test: Aβ42-induced ERK2 activation (pERK2) in synaptosomes; assay type: biochemical, rat; conditions: 0.1 and 1 nM, simultaneous treatment
Method: FIG. 3, in two panels as FIG. 3A and FIG. 3B, illustrates that FLNA-binding compounds reduce Aβ-induced α7nAChR-mediated ERK2 signaling. In the same treated synaptosomes used in FIG. 2, levels of phosphorylated (activated) ERK2 (pERK2) were measured in immunoprecipitates of ERK2. Aβ42 strongly activated extracellular signal-regulated kinase 2 [ERK2; also known as mitogen-activated protein kinase 1 (MAPK1)], and all compounds studied reduced this activation with 10-minutes of pretreatment. […] Immunoprecipitates were determined by Western blotting (FIG. 3A) and quantified by densitometry (FIG. 3B). n=3. Data are means±SEM. […] vs. Aβ42 alone. Hatching is as in FIG. 2.
(§1) Synaptosomes were exposed to 100 nM Aβ42 for 30 minutes, and with […] compounds added either simultaneously or 10 minutes earlier. Controls were a vehicle (no Aβ42) and an Aβ42 alone condition.
To assess Aβ42 signaling via α7nAChR after compound administration, levels of phosphorylated ERK2 were measured in the same synaptosome preparations treated with Aβ42 and the above compounds using Western blots (FIG. 3A). Phosphorylation of ERK2 indicates its activation, which leads to tau hyperphosphorylation. Compared to the control condition, Aβ42 strongly activates ERK2. This activation is suppressed by all six compounds at 0.1 and 1 nM with 10 minute pretreatment, and also by Compound B0055 and (+)NLX with simultaneous treatment (FIG. 3B).

tau protein = test: Aβ42-induced tau phosphorylation at S202, T231 and T181 in synaptosomes; assay type: biochemical, rat
Method: FIG. 4, in four panels as FIG. 4A, FIG. 4B, FIG. 4C and FIG. 4D, illustrate that FLNA-binding compounds reduce tau phosphorylation at all three hyperphosphorylation sites. […] The three phosphoepitopes of tau were detected in immunoprecipitates using specific antibodies in Western blots. […] Immunoprecipitates were determined by Western blotting (FIG. 4A) and quantified by densitometry (FIG. 4B, FIG. 4C and FIG. 4D). Data are means±SEM. […] vs. Aβ42 alone. Hatching is as in FIG. 2.
as §1
Next assessed was whether the FLNA-binding compounds also decrease hyperphosphorylation of tau, a downstream effect of Aβ42 binding to α7nAChR and ERK2 activation. The three primary phosphorylation sites on tau protein were examined for their phosphorylation levels compared to total tau protein content using Western blots (FIG. 4A). Tau, phosphorylated at these three sites, is a constituent of NFTs.

[1] = target: FLNA pentapeptide of SEQ ID NO: 1 (Bn-VAKGL) (Homo sapiens, UniProt P21333); test: FITC-NLX-based FLNA screening assay (inhibition of FITC-naloxone binding to Bn-VAKGL); conditions: for Percent inhibition of FITC-NLX binding: listed as NTX
mu opioid receptor (MOR) = mu opioid receptor (MOR) (Homo sapiens, UniProt P35372); conditions: cited from earlier work
kappa-opioid receptor = kappa-opioid receptor (Homo sapiens, UniProt P41145); conditions: cited from earlier work
delta-opioid receptor = delta-opioid receptor (Homo sapiens, UniProt P41143); conditions: cited from earlier work
FLNA [2] = target: T2, FLNA (Homo sapiens, UniProt P21333); test: Inhibition of [3H]NLX binding to membranes from FLNA-expressing A7 cells; conditions: for IC50: [3H]NLX binding, A7 cell membranes, Example 3, six studies, two-site fit
T2 construct: rather than the full protein from a cell membrane preparation; host or cells: A7 cells (membranes)

FLNA [3] = target: T2, FLNA; test: Inhibition of FITC-NLX binding to FLNA in membranes of A7 cells; conditions: for IC50: FITC-NLX in place of [3H]NLX
Source text: 3(2):e1554 (2008), FIG. 3. FIG. 1B is a similar plot obtained from the use of FITC-labeled NLX (FITC-NLX) in place of the radio-labeled material.

FLNA [4] = target: T2, FLNA; conditions: [3H]NLX binding, A7 cell membranes, Wang et al. 2008/2009, cited from earlier work

T2 sequence (P21333 whole entry): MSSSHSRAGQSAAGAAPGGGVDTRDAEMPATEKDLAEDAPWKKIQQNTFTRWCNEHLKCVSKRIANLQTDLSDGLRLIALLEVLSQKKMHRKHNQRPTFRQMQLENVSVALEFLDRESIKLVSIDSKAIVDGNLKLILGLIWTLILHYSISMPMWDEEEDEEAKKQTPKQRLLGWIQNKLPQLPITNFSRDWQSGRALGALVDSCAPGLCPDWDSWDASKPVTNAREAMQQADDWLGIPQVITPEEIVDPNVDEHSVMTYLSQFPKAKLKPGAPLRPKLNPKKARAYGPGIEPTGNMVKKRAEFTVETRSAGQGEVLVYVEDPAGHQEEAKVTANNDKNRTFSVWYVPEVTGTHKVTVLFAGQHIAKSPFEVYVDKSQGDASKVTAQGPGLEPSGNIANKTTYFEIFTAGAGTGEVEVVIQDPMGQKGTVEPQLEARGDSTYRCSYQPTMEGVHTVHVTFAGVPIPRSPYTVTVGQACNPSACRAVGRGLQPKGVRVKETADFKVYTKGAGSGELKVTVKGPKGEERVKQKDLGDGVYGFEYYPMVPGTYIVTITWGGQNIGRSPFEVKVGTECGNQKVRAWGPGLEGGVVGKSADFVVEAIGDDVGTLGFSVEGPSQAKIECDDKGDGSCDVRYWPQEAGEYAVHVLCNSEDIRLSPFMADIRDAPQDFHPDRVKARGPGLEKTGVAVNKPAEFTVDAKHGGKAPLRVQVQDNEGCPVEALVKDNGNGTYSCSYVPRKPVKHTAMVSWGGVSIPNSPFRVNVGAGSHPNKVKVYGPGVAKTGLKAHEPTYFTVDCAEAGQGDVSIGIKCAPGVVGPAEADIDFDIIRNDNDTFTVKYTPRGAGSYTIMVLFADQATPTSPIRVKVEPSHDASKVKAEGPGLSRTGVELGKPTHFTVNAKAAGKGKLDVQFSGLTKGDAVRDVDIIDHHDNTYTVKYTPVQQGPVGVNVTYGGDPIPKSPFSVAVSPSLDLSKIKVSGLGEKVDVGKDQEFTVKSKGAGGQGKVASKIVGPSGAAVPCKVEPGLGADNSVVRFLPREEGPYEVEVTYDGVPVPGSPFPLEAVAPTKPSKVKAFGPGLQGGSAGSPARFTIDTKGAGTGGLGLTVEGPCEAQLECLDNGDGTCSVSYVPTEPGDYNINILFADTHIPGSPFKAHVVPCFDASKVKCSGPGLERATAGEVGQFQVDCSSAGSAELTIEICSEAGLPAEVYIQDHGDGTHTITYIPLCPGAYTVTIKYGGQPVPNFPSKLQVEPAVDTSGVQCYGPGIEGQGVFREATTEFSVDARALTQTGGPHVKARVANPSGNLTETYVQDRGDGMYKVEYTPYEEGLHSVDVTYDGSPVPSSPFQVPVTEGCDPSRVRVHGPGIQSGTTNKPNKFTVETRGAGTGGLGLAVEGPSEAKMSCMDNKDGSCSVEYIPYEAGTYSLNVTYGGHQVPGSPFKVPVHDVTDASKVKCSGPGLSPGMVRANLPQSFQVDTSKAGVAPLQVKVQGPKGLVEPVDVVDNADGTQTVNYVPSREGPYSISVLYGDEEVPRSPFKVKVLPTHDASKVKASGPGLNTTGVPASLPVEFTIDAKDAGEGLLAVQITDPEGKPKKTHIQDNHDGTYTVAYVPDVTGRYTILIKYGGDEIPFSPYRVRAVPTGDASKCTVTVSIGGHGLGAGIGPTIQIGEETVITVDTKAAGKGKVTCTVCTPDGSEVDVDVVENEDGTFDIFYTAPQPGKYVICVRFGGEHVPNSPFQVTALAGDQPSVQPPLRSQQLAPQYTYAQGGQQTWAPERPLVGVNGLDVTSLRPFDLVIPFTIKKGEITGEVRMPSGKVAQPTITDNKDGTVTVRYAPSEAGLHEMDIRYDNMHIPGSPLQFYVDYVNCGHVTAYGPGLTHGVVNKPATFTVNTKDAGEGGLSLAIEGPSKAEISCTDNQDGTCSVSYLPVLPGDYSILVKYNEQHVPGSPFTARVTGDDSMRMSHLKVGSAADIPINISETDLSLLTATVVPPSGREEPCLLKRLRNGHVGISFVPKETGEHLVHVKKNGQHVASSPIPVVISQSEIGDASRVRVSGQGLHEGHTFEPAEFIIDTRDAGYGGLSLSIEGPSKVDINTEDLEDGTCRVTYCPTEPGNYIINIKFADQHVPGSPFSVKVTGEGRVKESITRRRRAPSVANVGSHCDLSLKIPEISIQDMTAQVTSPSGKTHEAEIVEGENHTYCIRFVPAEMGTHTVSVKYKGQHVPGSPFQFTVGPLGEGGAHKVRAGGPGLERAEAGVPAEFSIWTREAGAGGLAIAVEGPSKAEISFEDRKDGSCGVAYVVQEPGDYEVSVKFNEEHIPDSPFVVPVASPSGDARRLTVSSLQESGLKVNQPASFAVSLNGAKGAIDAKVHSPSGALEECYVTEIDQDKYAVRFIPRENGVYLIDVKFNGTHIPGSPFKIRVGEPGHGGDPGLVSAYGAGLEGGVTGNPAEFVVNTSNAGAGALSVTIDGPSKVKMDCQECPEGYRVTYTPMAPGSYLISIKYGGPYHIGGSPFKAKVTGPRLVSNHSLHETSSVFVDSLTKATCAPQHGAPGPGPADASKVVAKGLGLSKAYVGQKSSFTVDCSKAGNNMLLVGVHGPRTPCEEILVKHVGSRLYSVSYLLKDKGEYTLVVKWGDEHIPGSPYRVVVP
Chain of kappa-opioid receptor (P41145 whole entry): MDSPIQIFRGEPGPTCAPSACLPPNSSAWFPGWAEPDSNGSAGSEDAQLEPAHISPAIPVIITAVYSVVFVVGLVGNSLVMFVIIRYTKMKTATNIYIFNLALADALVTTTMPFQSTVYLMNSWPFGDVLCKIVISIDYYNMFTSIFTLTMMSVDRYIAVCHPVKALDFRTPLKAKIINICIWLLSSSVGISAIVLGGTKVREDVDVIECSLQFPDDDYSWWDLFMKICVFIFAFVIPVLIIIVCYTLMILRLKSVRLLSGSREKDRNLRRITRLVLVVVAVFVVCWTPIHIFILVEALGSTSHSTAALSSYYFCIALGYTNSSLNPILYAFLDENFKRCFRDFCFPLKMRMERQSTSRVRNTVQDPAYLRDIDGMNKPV
Chain of delta-opioid receptor (P41143 whole entry): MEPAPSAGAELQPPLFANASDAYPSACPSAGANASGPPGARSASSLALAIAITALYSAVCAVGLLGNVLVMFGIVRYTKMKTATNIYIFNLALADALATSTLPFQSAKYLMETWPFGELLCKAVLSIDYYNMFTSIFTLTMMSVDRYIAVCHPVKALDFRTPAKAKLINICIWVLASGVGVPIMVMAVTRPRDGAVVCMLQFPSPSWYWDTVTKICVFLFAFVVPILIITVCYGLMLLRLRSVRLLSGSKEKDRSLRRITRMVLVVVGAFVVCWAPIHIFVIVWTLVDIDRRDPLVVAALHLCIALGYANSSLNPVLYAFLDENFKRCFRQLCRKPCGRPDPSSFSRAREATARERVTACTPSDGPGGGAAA
Chain of mu opioid receptor (MOR) (P35372 whole entry, species assumed): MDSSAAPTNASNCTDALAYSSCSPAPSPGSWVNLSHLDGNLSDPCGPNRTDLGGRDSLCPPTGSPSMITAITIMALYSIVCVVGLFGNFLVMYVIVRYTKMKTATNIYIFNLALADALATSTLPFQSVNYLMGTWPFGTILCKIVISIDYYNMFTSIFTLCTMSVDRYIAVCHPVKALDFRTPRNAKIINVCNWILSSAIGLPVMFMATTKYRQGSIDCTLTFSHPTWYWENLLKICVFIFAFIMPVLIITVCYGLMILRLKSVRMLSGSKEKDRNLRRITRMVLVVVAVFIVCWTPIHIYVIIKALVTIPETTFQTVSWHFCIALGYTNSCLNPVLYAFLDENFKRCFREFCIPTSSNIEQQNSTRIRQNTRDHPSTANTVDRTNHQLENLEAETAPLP

In the case of `COc1c2c(cc3c1C(CC(=O)Cc1ccccc1F)[N+](C)(C)CC3)OCO2` (stereo not shown) [Compound B0055], the α7nAChR-FLNA association (α7nAChR-FLNA complex) is reported as “markedly reduced” and the “Aβ42-induced ERK2 activation (pERK2)” value (ERK2) is reported as “suppressed; also recorded: reduced the activation at both concentrations”.
For (+)-naloxone [(+)NLX], the α7nAChR-FLNA association (α7nAChR-FLNA complex) was “markedly reduced”, the “Aβ42-induced ERK2 activation (pERK2)” value (ERK2) was “suppressed” and the “Aβ42-induced ERK2 activation (pERK2)” value (ERK2; listed as (+)-naloxone) was “reduced the activation at both concentrations”. The “Aβ42-induced hyperphosphorylation of tau at all three sites” value (tau protein; FIG. 4D, timing not specified) was “particularly decreased” and the “Aβ42-induced tau phosphorylation at S202, T231 and T181” value (tau protein; simultaneous administration, both concentrations) was “reduced tau phosphorylation”.
In the case of `Oc1ccc2c3c1O[C@H]1c4[nH]c5ccccc5c4C[C@@]4(O)[C@@H](C2)N(CC2CC2)CC[C@]314` [Naltrindole], the inhibition at 1 µM ([1]; read-out: Percent Inhibition) is given as 41%, the inhibition at 10 µM ([1]; read-out: Percent Inhibition) is given as 65% and the “RECEPTOR MU: antagonism/agonism and relative potency” value (mu opioid receptor (MOR)) is given as “−”. The “RECEPTOR KAPPA: antagonism/agonism and relative potency” value (kappa-opioid receptor) was “−”.
For `Oc1ccc2c3c1O[C@H]1c4[nH]c5c(c4C[C@@]4(O)C(C2)N(CC2CC2)CC[C@]314)C[C@@]1(O)[C@H]2Cc3ccc(O)c4c3[C@@]1(CCN2CC1CC1)[C@H]5O4` [nor-Binaltrophimine], the “RECEPTOR DELTA: antagonism/agonism and relative potency” value (delta-opioid receptor) is given as “−”.
For `O=C1CC[C@@]2(O)[C@H]3Cc4ccc(O)c5c4[C@@]2(CCN3CC2CC2)[C@H]1O5` [Naltrexone], the “binding to the FLNA pentapeptide of SEQ ID NO: 1 (in words)” value [1] was “bind well”, the “Percent inhibition of FITC-NLX binding” value ([1]; 0.01 μM compound, 10 nM FITC-NLX) was 37.9% and 34.8% and 38.5% and the “Percent inhibition of FITC-NLX binding” value ([1]; 0.1 μM compound, 10 nM FITC-NLX) was 46.5% and 45.2% and 43.3%. For the same compound, the “Percent inhibition of FITC-NLX binding” value ([1]; 1 μM compound, 10 nM FITC-NLX) was 55.4% and 51.6% and 48.0%, the inhibition at 1 µM ([1]; read-out: Percent Inhibition, 1 μM compound (n = 5)) was 76.4% and the inhibition at 0.01 µM ([1]; read-out: Percent inhibition of FITC-NLX binding, 0.01 μM compound, 10 nM FITC-NLX) was 40.2%. It also gave an inhibition at 0.1 µM ([1]; read-out: Percent inhibition of FITC-NLX binding, 0.1 μM compound, 10 nM FITC-NLX) of 47.4%, an inhibition at 1 µM ([1]; read-out: Percent inhibition of FITC-NLX binding, 1 μM compound, 10 nM FITC-NLX) of 49.1% and an inhibition at 1 µM ([1]; read-out: inhibition of binding of FITC-labeled NLX, 1 μM compound, 10 nM FITC-NLX, n=5, FIG. 11) of ~75%. For the same compound, the IC50 (FLNA [2]; IC50-L (low)) was 834 pM, the IC50 (FLNA [2]; read-out: IC50-H (high)) was 3.94 pM and the “affinity difference between the high- and low-affinity binding sites” value (FLNA [2]; [3H]NLX label) was “about 200 fold”. The IC50 (FLNA [3]; read-out: IC50-H (high)) was 1.63 pM, the IC50 (FLNA [3]; read-out: IC50-L (low)) was 18800 pM and the “affinity difference between the high- and low-affinity binding sites” value (FLNA [3]; FITC-NLX label) was ~12.000 fold. For the same compound, the IC50 (FLNA [4]; read-out: IC50-H (high affinity site)) was 3.94 pM and the IC50 (FLNA [4]; read-out: IC50-L (lower affinity site)) was 834 pM.
In the case of `C=CCN1CC[C@]23c4c5ccc(O)c4O[C@H]2/C(=N/NC(=O)c2ccccc2)CC[C@@]3(O)[C@H]1C5` [Naloxone Benzoylhydrazone], the “RECEPTOR DELTA: antagonism/agonism and relative potency” value (delta-opioid receptor) is given as “−” and the “RECEPTOR KAPPA: antagonism/agonism and relative potency” value (kappa-opioid receptor) is given as “−”.
